Experimental data as given in patent publication US8372967B2, “Compounds and methods for modulating expression of GCCR” (Isis Pharmaceuticals, Inc., priority 2006, dated 2013).
Strand notation (5' to 3'): a small letter for the sugar, then the base; units joined by * are phosphorothioate-linked, units joined directly phosphodiester-linked; [ ] holds rarer units or linkages, { } end groups; capitals alone tell only the bases. e = 2'-O-(2-methoxyethyl) (MOE); [5mC] = 5-methylcytosine; d = 2'-deoxy (DNA)

Assays:
SGLT2 mRNA = SGLT2 mRNA in kidney of Balb/c mice, twenty 1-10-1 MOE gapmers, PPS 534 and PPS 553 (Table 74); type: in vivo, mouse; settings: i.p. 350 nmol/kg twice per week for two weeks
Method: Twenty 1-10-1 MOE gapmers that are complementary to human/monkey/mouse/rat SGLT2 were designed, synthesized and tested in vivo for suppression of SGLT2 mRNA levels in kidney. Data are averages from two experiments in which male 6-week old Balb/c mice were administered intraperitoneal injections of 350 nmol/kg of oligonucleotide, twice per week, over a period of two weeks (a total of four injections). Mice were sacrificed 48 hours following the last administration and evaluated for SGLT2 mRNA levels in kidney. SGLT2 mRNA levels were determined by quantitative real-time PCR analysis according to standard procedures, using two different PCR primer probe sets, primer probe set (PPS) 534 and PPS 553. SGLT2 mRNA levels were normalized to cyclophilin mRNA levels, which were also measured by quantitative real-time PCR.

PTP1B mRNA = experiment: Dose response for human PTP1B in HuVEC cells, PPS 198 and PPS 3000 (Tables 86, 87); type: cell-based
Method: Human vascular endothelial (HuVEC) cells were plated at a density of 5000 cells per well and treated as described herein with nM concentrations of short antisense compound as indicated in Table 86. After the treatment period, RNA was isolated from the cells and PTP1B mRNA levels were measured by quantitative real-time PCR, as described herein. PTP1B mRNA levels were adjusted according to total RNA content as measured by RIBOGREEN®. Two different human PTP1B primer probe sets were used to measure mRNA levels. Results with Primer Probe Set (PPS) 198 are shown in Table 86, and results with Primer Probe Set (PPS) 3000 are shown in Table 87. Results are presented as percent inhibition of PTP1B mRNA expression relative to untreated control cells.

PCSK9 mRNA [1] = type: cell-based, human; settings: Hep3B cells, 100 nM, relative to untreated control cells; for % Inhib: 0 = no reduction observed
PCSK9 mRNA [2] = experiment: Dose-dependent antisense inhibition of PCSK9 in Hep3B cells, EC50 (Table 76); type: cell-based, human
Method: When cells reached appropriate confluency, they were treated with oligonucleotide using LIPOFECTIN® as described. […] Cells were treated and data were obtained in duplicate or triplicate. […] Cells were harvested 16-24 hours after oligonucleotide treatment.
Short antisense compounds targeted to a PCSK9 nucleic acid were tested in a dose response experiment Hep3B cells. After the treatment period, RNA was isolated from the cells and PCSK9 mRNA levels were measured by quantitative real-time PCR, as described herein. PCSK9 mRNA levels were normalized to cyclophilin mRNA levels, as measured by real-time PCR using a cyclophilin-specific primer probe set. Results are presented as percent inhibition of PCSK9, relative to untreated control cells. […] As illustrated in the following table, PCSK9 mRNA levels were reduced in a dose-dependent manner.

[3] = Triglyceride, cholesterol and glucose levels, pre-bleed and post-bleed, GCGR study (Table 34); type: in vivo, mouse; settings: C57/BL6 mice, 48 hours after single i.p. dose
Method: Eight-week old male C57/BL6 mice (Jackson Laboratory, Bar Harbor, Me.) were administered a single dose of GCGR oligonucleotide by intraperitoneal injection at a concentration of […]. Each dose group consisted of four animals. Shown in Table 31 are the sequences, motifs and conjugates of the GCGR antisense compounds used in this study. Bolded residues indicate 2′-O-methoxyethyl (2′-MOE) moieties. All compounds comprise phosphorothioate internucleoside linkages throughout and each cytosine is replaced with 5-methylcytosine. ISIS 386626, ISIS 386627 and ISIS 386628 further comprise a C16 conjugate group attached to the 2′-O position of the sugar via a diamide linkage (2′-OCH2C(═O)N(H)(CH2)4N(H)C(═O)—(CH2)15CH3). GCGR antisense compounds target published GCGR sequences, including Genbank® Accession No. BC031885.1 (SEQ ID NO: 7).
Mice were sacrificed 48 hours following injection to determine serum transaminase levels (Table 32); liver, white adipose tissue (WAT), spleen and kidney weight (Table 33); cholesterol, triglyceride and glucose levels (Table 34); GCGR mRNA levels (Tables 35-41); and full-length and total oligonucleotide concentration in liver and kidney (Table 42). Endpoints were assessed using methods described herein and well known to those of ordinary skill in the art. Data is included from a pre-treatment bleed (Pre-Bleed) and post-treatment bleed (Post-Bleed).

[4] = primer probe set 534, normalized to cyclophilin
[5] = primer probe set 553, normalized to cyclophilin

Substance | % change in SGLT2 mRNA vs saline (SGLT2 mRNA; [4]) [% Saline] | % change in SGLT2 mRNA vs saline (SGLT2 mRNA; [5]) [% Saline] | % Inhibition Range (PCSK9 mRNA [1]) | % Inhib (PCSK9 mRNA [1]) [%] | % Inhibition (PCSK9 mRNA [2]; 5 nM) [%] | % Inhibition (PCSK9 mRNA [2]; 10 nM) [%] | % Inhibition (PCSK9 mRNA [2]; 20 nM) [%] | % Inhibition (PCSK9 mRNA [2]; 40 nM) [%] | % Inhibition (PCSK9 mRNA [2]; 80 nM) [%] | % Inhibition (PCSK9 mRNA [2]; 160 nM) [%] | also measured
370717 (antisense eT*dA*dG*d[5mC]*d[5mC]*dA*d[5mC]*d[5mC]*dA*dA*d[5mC]*eT) [compound 370717] | −84.4 | −84.3 | – | – | – | – | – | – | – | – | –
379684 (antisense eT*dG*dT*d[5mC]*dA*dG*d[5mC]*dA*dG*dG*dA*eT) [compound 379684] | −45.0 | −43.2 | – | – | – | – | – | – | – | – | –
379685 (antisense eT*dG*dA*d[5mC]*d[5mC]*dA*dG*d[5mC]*dA*dG*dG*eA) [compound 379685] | −10.3 | −20.5 | – | – | – | – | – | – | – | – | –
379686 (antisense eA*d[5mC]*d[5mC]*dA*d[5mC]*dA*dA*dG*d[5mC]*d[5mC]*dA*eA) [compound 379686] | −71.9 | −75.1 | – | – | – | – | – | – | – | – | –
379687 (antisense eG*dA*dT*dG*dT*dT*dG*d[5mC]*dT*dG*dG*e[5mC]) [compound 379687] | −47.1 | −52.1 | – | – | – | – | – | – | – | – | –
379688 (antisense e[5mC]*d[5mC]*dA*dA*dG*d[5mC]*d[5mC]*dA*d[5mC]*dT*dT*eG) [compound 379688] | −62.6 | −70.4 | – | – | – | – | – | – | – | – | –
379689 (antisense eA*dG*dA*dG*d[5mC]*dG*d[5mC]*dA*dT*dT*d[5mC]*e[5mC]) [compound 379689] | −17.5 | −30.4 | – | – | – | – | – | – | – | – | –
379690 (antisense eA*d[5mC]*dA*dG*dG*dT*dA*dG*dA*dG*dG*e[5mC]) [compound 379690] | −18.9 | −22.5 | – | – | – | – | – | – | – | – | –
399173 (eA*eT*dG*d[5mC]*dT*dA*dG*dT*dG*d[5mC]*dA*d[5mC]*eT*eA; antisense) [compound 399173] | – | – | – | – | – | – | – | – | – | – | % Inhibition (PTP1B mRNA; PPS 198, 1.11 nM): 0%; % Inhibition (PTP1B mRNA; PPS 198, 3.33 nM): 24%; % Inhibition (PTP1B mRNA; PPS 198, 10.0 nM): 63%; % Inhibition (PTP1B mRNA; PPS 198, 30.0 nM): 89%; % Inhibition (PTP1B mRNA; PPS 3000, 1.11 nM): 0%; % Inhibition (PTP1B mRNA; PPS 3000, 3.33 nM): 11%; % Inhibition (PTP1B mRNA; PPS 3000, 10.0 nM): 59%; % Inhibition (PTP1B mRNA; PPS 3000, 30.0 nM): 92%
399208 (eA*eG*d[5mC]*dT*d[5mC]*dG*d[5mC]*dT*dA*d[5mC]*d[5mC]*dT*e[5mC]*eT; antisense) [compound 399208] | – | – | – | – | – | – | – | – | – | – | % Inhibition (PTP1B mRNA; PPS 198, 1.11 nM): 0%; % Inhibition (PTP1B mRNA; PPS 198, 3.33 nM): 37%; % Inhibition (PTP1B mRNA; PPS 198, 10.0 nM): 86%; % Inhibition (PTP1B mRNA; PPS 198, 30.0 nM): 93%; % Inhibition (PTP1B mRNA; PPS 3000, 1.11 nM): 0%; % Inhibition (PTP1B mRNA; PPS 3000, 3.33 nM): 47%; % Inhibition (PTP1B mRNA; PPS 3000, 10.0 nM): 85%; % Inhibition (PTP1B mRNA; PPS 3000, 30.0 nM): 96%
399276 (eG*eA*dG*dG*dT*dA*dT*d[5mC]*d[5mC]*d[5mC]*dA*dT*e[5mC]*eT; antisense) [compound 399276] | – | – | – | – | – | – | – | – | – | – | % Inhibition (PTP1B mRNA; PPS 198, 1.11 nM): 0%; % Inhibition (PTP1B mRNA; PPS 198, 3.33 nM): 8%; % Inhibition (PTP1B mRNA; PPS 198, 10.0 nM): 61%; % Inhibition (PTP1B mRNA; PPS 198, 30.0 nM): 89%; % Inhibition (PTP1B mRNA; PPS 3000, 1.11 nM): 0%; % Inhibition (PTP1B mRNA; PPS 3000, 3.33 nM): 14%; % Inhibition (PTP1B mRNA; PPS 3000, 10.0 nM): 64%; % Inhibition (PTP1B mRNA; PPS 3000, 30.0 nM): 86%
399315 (antisense eG*eG*d[5mC]*dA*dA*d[5mC]*dT*dT*d[5mC]*dA*dA*d[5mC]*e[5mC]*eT) [compound 399315] | – | – | – | – | – | – | – | – | – | – | % Inhibition (PTP1B mRNA; PPS 198, 1.11 nM): 0%; % Inhibition (PTP1B mRNA; PPS 198, 3.33 nM): 20%; % Inhibition (PTP1B mRNA; PPS 198, 10.0 nM): 68%; % Inhibition (PTP1B mRNA; PPS 198, 30.0 nM): 88%; % Inhibition (PTP1B mRNA; PPS 3000, 1.11 nM): 0%; % Inhibition (PTP1B mRNA; PPS 3000, 3.33 nM): 25%; % Inhibition (PTP1B mRNA; PPS 3000, 10.0 nM): 71%; % Inhibition (PTP1B mRNA; PPS 3000, 30.0 nM): 93%
400307 (antisense e[5mC]*eG*dG*d[5mC]*d[5mC]*dG*d[5mC]*dT*dG*dA*d[5mC]*d[5mC]*eA*e[5mC]) [compound 400307] | – | – | 70-80% | 76 | 35 | 39 | 45 | 56 | 92 | 93 | –
400308 (antisense e[5mC]*e[5mC]*dG*dG*d[5mC]*d[5mC]*dG*d[5mC]*dT*dG*dA*d[5mC]*e[5mC]*eA) [compound 400308] | – | – | 50-60% | 55 | 31 | 10 | 26 | 40 | 77 | 86 | –
400309 (antisense e[5mC]*e[5mC]*d[5mC]*dG*dG*d[5mC]*d[5mC]*dG*d[5mC]*dT*dG*dA*e[5mC]*e[5mC]) [compound 400309] | – | – | 40-50% | 44 | 49 | 23 | 38 | 12 | 72 | 78 | –
400327 (antisense eG*eT*d[5mC]*d[5mC]*d[5mC]*d[5mC]*dA*dA*dA*dG*dT*d[5mC]*e[5mC]*e[5mC]) [compound 400327] | – | – | 30-40% | 36 | 5 | 37 | 23 | 49 | 43 | 55 | –
400330 (antisense e[5mC]*e[5mC]*dA*d[5mC]*dG*dT*dG*dG*dG*d[5mC]*dA*dG*e[5mC]*eA) [compound 400330] | – | – | 40-50% | 43 | 8 | 32 | 40 | 69 | 82 | 71 | –
400331 (antisense eG*e[5mC]*d[5mC]*dA*d[5mC]*dG*dT*dG*dG*dG*d[5mC]*dA*eG*e[5mC]) [compound 400331] | – | – | 30-40% | 35 | 29 | 40 | 47 | 63 | 75 | 82 | –
400352 (antisense e[5mC]*eA*d[5mC]*d[5mC]*d[5mC]*dT*d[5mC]*dA*d[5mC]*d[5mC]*d[5mC]*d[5mC]*e[5mC]*eA) [compound 400352] | – | – | 20-30% | 29 | 7 | 16 | 40 | 44 | 63 | 64 | –
400353 (antisense eA*e[5mC]*dA*d[5mC]*d[5mC]*d[5mC]*dT*d[5mC]*dA*d[5mC]*d[5mC]*d[5mC]*e[5mC]*e[5mC]) [compound 400353] | – | – | 10-20% | 19 | 15 | 27 | 23 | 43 | 54 | 48 | –
ISIS 386628: GCGR short antisense compound with C16 conjugate group at 2′-O via diamide linkage (TGTCTTGCTGCTTT; chemistry not fully specified) | – | – | – | – | – | – | – | – | – | – | Glucose levels (post-bleed) [3]: decrease in post-bleed glucose levels
